Earlier results on five compounds are cited in US20020098221A1, “Oil-in-water emulsion formulation of insecticides” (priority 2000, published 2002).

The conditions of this data set: at room temperature.
Regarding `COCC(C)O` (centres unmarked) [1-methoxy-2-propanol], the solubility in water is reported as 100%.
For the compound `OCc1ccccc1` [benzyl alcohol], the solubility in water is on record as 4%.
In the case of `O=C1CCCCC1` [cyclohexanone], the solubility in water was 8%.
`C[S+](C)[O-]` [dimethylsulfoxide]: the solubility in water is reported as 100%.
For `CN1CCCC1=O` [n-methylpyrrolidone], the solubility in water is reported as 100%.
